Earlier results on two molecules are cited in US7037910B2, “Azabicyclic heterocycles as cannabinoid receptor modulators” (Bristol-Myers Squibb, priority 2003, dated 2006).

Each structure is given as a SMILES string. Where two headings read alike, the source gives them in different places.

For data set [1] the following is noted: chronic administration for two weeks.
For data set [2] the following is noted: human subjects, 16 week trial period.

As for `Cc1c(C(=O)NN2CCCCC2)nn(-c2ccc(Cl)cc2Cl)c1-c1ccc(I)cc1` [AM-251], the body weight result in data set [1] is “substantial body weight reduction”.
With `Cc1c(C(=O)NN2CCCCC2)nn(-c2ccc(Cl)cc2Cl)c1-c1ccc(Cl)cc1` [SR-141716], in data set [2], the body weight result was “dose-dependently reduced body weight”.
